Source: patent publication US10611733B2, “Quinazolinone analogs and use of quinazolinone analogs for treating or preventing certain viral infections” (priority 2011, dated 2020)

Key:
[1] = tested on: WNV; test: WNV antiviral assay; format: cell-based, West Nile Virus; settings: for CC50: read-out: TC50 (the source's name)
Text: The use of N-(2,3-dihydro-1H-inden-5-yl)-2-(4-oxo-3-phenyl-3,4-dihydroquinazolin-2-yl)thio) acetamide, a compound employed according to the present disclosure, for treating West Nile Virus has been disclosed. For example, please see Chung et al. A Cell Based Assay for the Identification of Lead Compounds with Anti-Viral Activity Against West Nile Virus, Probe Reports from the NIH Molecular Libraries Program[Internet]. Bethesda (Md.): National Center for Biotechnology Information (US); 2010-2010 Feb. 27 [updated 2010 Oct. 4], PMID: 21433390 [PubMed].

[2] = molecular target: HCV Con1b (Replicon); test: HCV Con1b (Replicon) Luciferase end-point; format: cell-based, Hepatitis C Virus; settings: for CC50: read-out: TC50 (the source's name)

`O=C(CSc1nc2ccccc2c(=O)n1-c1ccccc1F)Nc1ccc2c(c1)CCC2` [Example C11, 2-[3-(2-fluorophenyl)-4-oxo(3-hydroquinazolin-2-ylthio)]-N-indan-5-ylacetamide] was tested. Which IC50 [1] did it give?
The IC50 was 5 to 25 µM.

What about the CC50 [1] of the same compound?
Its CC50 is no less than 100 µM.

What does the source list for `Cc1cccc2c(=O)n(-c3ccccc3)c(SCC(=O)Nc3ccc4c(c3)CCC4)nc12` [Example C16, N-indan-5-yl-2-(8-methyl-4-oxo-3-phenyl(3-hydroquinazolin-2-ylthio))acetamide]?
IC50 [2]: 1 to 5 µM; CC50 [2]: 10 to 50 µM

For `O=C(CSc1nc2ccccc2c(=O)n1-c1ccc(Cl)c(Cl)c1)Nc1cccc2c1CCC2` [Example C18, 2-[3-(3,4-dichlorophenyl)-4-oxo(3-hydroquinazolin-2-ylthio)]-N-indan-4-ylacetamide], which IC50 [2] is on record?
The IC50 was 5 to 25 µM.

What about the CC50 [2] of the same compound?
The CC50 was 50 to 100 µM.

`O=C(CSc1nc2ccccc2c(=O)n1-c1ccc(Cl)c(Cl)c1)Nc1ccc2c(c1)OCO2` [Example C19, N-(2H-benzo[d]1,3-dioxolen-5-yl)-2-[3-(3,4-dichlorophenyl)-4-oxo(3-hydroquinazolin-2-ylthio)]acetamide] was tested. Which IC50 [2] did it give?
The IC50 was 1 to 5 µM.

What about the CC50 [2] of the same compound?
Its CC50 is no less than 100 µM.

For `O=C(CSc1nc2ccccc2c(=O)n1-c1cc(Cl)cc(Cl)c1)Nc1ccc2c(c1)CCC2` [Example C20, 2-[3-(3,5-dichlorophenyl)-4-oxo(3-hydroquinazolin-2-ylthio)]-N-indan-5-ylacetamide], which IC50 [1] is on record?
Its IC50 is 1 to 5 µM.

What about the CC50 [1] of the same compound?
The CC50 was no less than 100 µM.

Which IC50 [2] does the source give for `O=C(CCSc1nc2ccccc2c(=O)n1-c1ccc(F)c(Cl)c1)Nc1ccc2c(c1)CCC2` [Example C21, 3-[3-(3-chloro-4-fluorophenyl)-4-oxo(3-hydroquinazolin-2-ylthio)]-N-indan-5-ylpropanamide] here?
Its IC50 is 5 to 25 µM.

What about the CC50 [2] of the same compound?
Its CC50 is 10 to 50 µM.

How did the IC50 [2] turn out when `O=C(CSc1nc2ccccc2c(=O)n1-c1ccc(F)c(Cl)c1)Nc1cccc2c1CCC2` [Example C22, 2-[3-(3-chloro-4-fluorophenyl)-4-oxo(3-hydroquinazolin-2-ylthio)]-N-indan-4-ylacetamide] was run?
The IC50 was 1 to 5 µM.

And the CC50 [2]?
The CC50 was 10 to 50 µM.

Which IC50 [2] does the source give for `O=C(CSc1nc2ccccc2c(=O)n1-c1ccc(F)c(Cl)c1)Nc1ccc2c(c1)OCO2` [Example C23, N-(2H-benzo[3,4-d]1,3-dioxolan-5-yl)-2-[3-(3-chloro-4-fluorophenyl)-4-oxo(3-hydroquinazolin-2-ylthio)]acetamide] here?
The IC50 was 5 to 25 µM.

What about the CC50 [2] of the same compound?
The CC50 was no less than 100 µM.

What does the source list for `O=C(CSc1nc2cccc(F)c2c(=O)n1-c1ccccc1)NC1CCCc2ccccc21` (stereo not shown) [Example C28, 2-(5-fluoro-4-oxo-3-phenyl(3-hydroquinazolin-2-ylthio))-N-(1,2,3,4-tetrahydronaphthyl)acetamide]?
IC50 [2]: 5 to 25 µM; CC50 [2]: ≥ 100 µM

With `O=C(CSc1nc2cccc(F)c2c(=O)n1-c1ccc(Cl)c(F)c1)Nc1ccc2c(c1)CCC2` [Example C29, 2-[3-(4-chloro-3-fluorophenyl)-5-fluoro-4-oxo(3-hydroquinazolin-2-ylthio)]-N-indan-5-ylacetamide] as the compound, how does the IC50 [2] read?
The IC50 was 1 to 5 µM.

What about the CC50 [2] of the same compound?
The CC50 was no less than 100 µM.

With `O=C(CSc1nc2cccc(F)c2c(=O)n1-c1cc(F)c(F)c(F)c1)Nc1ccc2c(c1)CCC2` [Example C30, 2-[5-fluoro-4-oxo-3-(3,4,5-trifluorophenyl)(3-hydroquinazolin-2-ylthio)]-N-indan-5-ylacetamide] as the compound, how does the IC50 [2] read?
The IC50 was 1 to 5 µM.

What about the CC50 [2] of the same compound?
Its CC50 is 50 to 100 µM.

Which IC50 [1] does the source give for `O=C(CSc1nc2ccccc2c(=O)n1-c1ccccc1)Nc1ccc2c(c1)CCC2` [Example C32, N-indan-5-yl-2-(4-oxo-3-phenyl(3-hydroquinazolin-2-ylthio))acetamide] here?
The IC50 was 5 to 25 µM.

And the CC50 [1]?
Its CC50 is no less than 100 µM.

Which results are given for `Cc1cc(-n2c(SCC(=O)Nc3ccc4c(c3)CCC4)nc3ccccc3c2=O)ccc1Cl` [Example C33, 2-[3-(4-chloro-3-methylphenyl)-4-oxo(3-hydroquinazolin-2-ylthio)]-N-indan-5-ylacetamide]?
IC50 [1]: 1 to 5 µM; CC50 [1]: 50 to 100 µM

For `O=C(CSc1nc2ccccc2c(=O)n1-c1ccc(Cl)c(Cl)c1)Nc1ccc2scnc2c1` [Example C46, N-benzothiazol-5-yl-2-[3-(3,4-dichlorophenyl)-4-oxo(3-hydroquinazolin-2-ylthio)]acetamide], which IC50 [2] is on record?
Its IC50 is 1 to 5 µM.

And the CC50 [2]?
Its CC50 is no less than 100 µM.
